Data on 35 molecules can be found in US6528655B1, “Aromatic derivatives with HIV integrase inhibitory properties” (Pharmacor, Inc., priority 2000, dated 2003).

The assay has as its target HIV-1 integrase (Human immunodeficiency virus type 1 group M subtype B, UniProt P04585). In words: HIV-1 integrase inhibition assay (radiolabeled duplex substrate corresponding to the U5 end of the HIV LTR). It counts as biochemical. The method, then:
For the purpose of Table 1 to 4, the HIV-1 integrase inhibition assay was carried out following a known procedure (Burke, Jr. T. R. et al., J. Med. Chem. 38, 4171-4178 (1995)). A suitable radiolabeled duplex substrate corresponding to the U5 end of the HIV LTR was used.
For the purposes of Table 1 to 4 the HIV-1 integrase inhibition assay was based on a known procedure (Hazuda, D. J. et al., Nucleic Acids Res. 22 1121-1122 (1994)).

[1] abbreviates: Table 1, compounds of formula II′, read-out: IC50.

Molecules are shown by their SMILES. Like-named read-outs stand apart in the source and are kept apart here. Where only a bound is given, the exact number is not on record here.

As usually defined, the IC50 is the midpoint of a concentration-inhibition curve. As to `O=C(C[C@H](NC(=O)c1ccc(O)c(O)c1)C(=O)NCCc1ccc(O)c(O)c1)OC1CCCCC1` [Example 1, N-[Nα-(3,4-Dihydroxybenzoyl)-Oγ-cyclohexyl-L-aspartyl]dopamine], the IC50 was 34000 nM. On the same count and under the same terms, the same measure for `Nc1cc(C(=O)N[C@H](Cc2cn(C(c3ccccc3)(c3ccccc3)c3ccccc3)cn2)C(=O)NCCc2ccc(O)c(O)c2)ccc1O` [Example 2, N-[Nα-(3-Amino-4-hydroxybenzoyl)-Nτ-trityl-D-histidinyl]dopamine]: above 5000 nM. Take `O=C(NCCCC[C@H](NC(=O)c1ccc(O)c(O)c1)C(=O)O)c1ccc(O)c(O)c1` [Example 3, Nα,Nε-di-(3,4-Dihydroxybenzoyl)-L-lysine]: the IC50 is 14000 nM. Same read-out and setting: in the case of `O=C(N[C@@H](Cc1ccc(O)cc1)C(=O)NCCc1ccc(O)c(O)c1)c1cnc(O)nc1O` [Example 4, N-[Nα-(2,4-Dihydroxypyrimidinyl-5-carbonyl)-L-tyrosyl]dopamine] it was above 10000 nM; in that of `O=C(/C=C/c1ccc(O)c(O)c1)NCCCC[C@H](NC(=O)/C=C/c1ccc(O)c(O)c1)C(=O)NCCc1ccc(O)c(O)c1` [Example 5, N-(Nα,Nε-Dicaffeoyl-L-lysyl)dopamine], 510 nM; in that of `O=C(/C=C/c1ccc(O)c(O)c1)NCCCC[C@H](NC(=O)/C=C/c1ccc(O)c(O)c1)C(=O)OCc1ccccc1` [Example 6, Nα,Nε-Dicaffeoyl-L-lysine Benzyl Ester], 2700 nM. With `C[C@@H](OCc1ccccc1)[C@H](NC(=O)c1ccc(O)c(O)c1)C(=O)NCCc1ccc(O)c(O)c1` [Example 9, N-[Nα-(3,4-Dihydroxybenzoyl)-O-benzyl-L-threonyl]dopamine], the IC50 is above 5000 nM.

In turn, `O=C(/C=C/c1ccc(O)c(O)c1)NCCC[C@H](NC(=O)/C=C/c1ccc(O)c(O)c1)C(=O)NCCc1ccc(O)c(O)c1` [Example 11, N-(Nα,Nδ-Dicaffeoyl-L-ornithyl)dopamine] showed an IC50 of 870 nM.

In turn, `O=C(/C=C/c1ccc(O)c(O)c1)N[C@@H](CSC(c1ccccc1)(c1ccccc1)c1ccccc1)C(=O)NCCc1ccc(O)c(O)c1` [Example 12, N-(Nα-Caffeoyl-S-trityl-L-cysteinyl)dopamine] gave an IC50 of 472 nM. For the molecule `O=C(C=Cc1ccc(O)c(O)c1)NC(Cc1cn(C(c2ccccc2)(c2ccccc2)c2ccccc2)cn1)C(=O)NCCc1ccc(O)c(O)c1` [Example 13, N-(Nα-Caffeoyl-Nτ-trityl-L-histidinyl)dopamine], the IC50 was found to be 369 nM. Molecule `O=C(N[C@@H](Cc1cn(C(c2ccccc2)(c2ccccc2)c2ccccc2)cn1)C(=O)NCCc1ccc(O)c(O)c1)c1ccc(O)c(O)c1` [Example 14, N-[Nα-(3,4-Dihydroxybenzoyl)-Nτ-trityl-L-histidinyl]dopamine] showed an IC50 of 65 nM. On to `O=C(N[C@@H](Cc1ccc(O)c(O)c1)C(=O)NCCc1ccc(O)c(O)c1)c1ccc(O)c([N+](=O)[O-])c1` [Example 15, N-[Nα-(4-Hydroxy-3-nitrobenzoyl)-L-3,4-dihydroxyphenylalanyl]dopamine], for which the IC50 was found to be 433 nM. Molecule `O=C(N[C@H](Cc1cn(C(c2ccccc2)(c2ccccc2)c2ccccc2)cn1)C(=O)NCCc1ccc(O)c(O)c1)c1ccc(O)c(O)c1` [Example 16, N-[Nα-(3,4-Dihydroxybenzoyl)-Nτ-trityl-D-histidinyl]dopamine] showed an IC50 of 155 nM. As for `O=C(N[C@@H](Cc1cn(C(c2ccccc2)(c2ccccc2)c2ccccc2)cn1)C(=O)NCCc1ccc(O)c(O)c1)c1ccc(O)c([N+](=O)[O-])c1` [Example 17, N-[Nα-(4-Hydroxy-3-nitrobenzoyl)-Nτ-trityl-L-histidinyl]dopamine], half-maximal inhibition (IC50) required 1600 nM. With `O=C(N[C@H](Cc1cn(C(c2ccccc2)(c2ccccc2)c2ccccc2)cn1)C(=O)NCCc1ccc(O)c(O)c1)c1ccc(O)c([N+](=O)[O-])c1` [Example 18, N-[Nα-(4-Hydroxy-3-nitrobenzoyl)-Nτ-trityl-D-histidinyl]dopamine], half-maximal inhibition (IC50) required 562 nM. As for `O=C(C=Cc1ccc(O)c(O)c1)NC(Cc1cn(-c2ccc([N+](=O)[O-])cc2[N+](=O)[O-])cn1)C(=O)NCCc1ccc(O)c(O)c1` [Example 19, N-[Nα-Caffeoyl-Nτ-(2,4-dinitrophenyl)-L-histidinyl]dopamine], the IC50 was 560 nM.

`Nc1ccc(C(=O)N[C@@H](Cc2ccc(O)c(O)c2)C(=O)O)cc1O` [Example 20, Nα-(4-Amino-3-hydroxybenzoyl)-L-3,4-dihydroxyphenylalanine] came in with an IC50 above 5000 nM. In turn, `O=C(N[C@@H](Cc1cn(-c2ccc([N+](=O)[O-])cc2[N+](=O)[O-])cn1)C(=O)NCCc1ccc(O)c(O)c1)c1ccc(O)c(O)c1` [Example 21, N-[Nα-(3,4-Dihydroxybenzoyl)-Nτ-(2,4-dinitrophenyl)-L-histidinyl]dopamine] registered an IC50 of 151 nM. In turn, `O=C(N[C@@H](Cc1cn(-c2ccc([N+](=O)[O-])cc2[N+](=O)[O-])cn1)C(=O)NCc1ccc(O)c(O)c1)c1ccc(O)c(O)c1` [Example 23, N-[Nα-(3,4-Dihydroxybenzoyl)-Nτ-(2,4-dinitrophenyl)-L-histidinyl]-3,4-dihydroxybenzylamine] registered an IC50 of 262 nM. With `CC(C)(C)OC(=O)N[C@@H](Cc1cn(-c2ccc([N+](=O)[O-])cc2[N+](=O)[O-])cn1)C(=O)NCc1ccc(O)c(O)c1` [Example 24, N-[Nα-tert-Butoxycarbonyl-Nτ-(2,4-dinitrophenyl)-L-histidinyl]-3,4-dihydroxybenzylamine], the IC50 was above 5000 nM.

`O=C(N[C@@H](Cc1cn(C(c2ccccc2)(c2ccccc2)c2ccccc2)cn1)C(=O)NCc1ccc(O)c(O)c1)c1ccc(O)c(O)c1` [Example 25, N-[Nα-(3,4-Dihydroxybenzoyl)-Nτ-trityl-L-histidinyl]-3,4-dihydroxybenzylamine] displayed an IC50 above 1000 nM. Molecule `Cc1ccc(C(NC(=O)CC[C@H](NC(=O)c2ccc(O)c([N+](=O)[O-])c2)C(=O)NCc2ccc(O)c(O)c2)(c2ccccc2)c2ccccc2)cc1` [Example 26, N-[Nα-(4-Hydroxy-3-nitrobenzoyl)-Nδ-methyltrityl-L-glutaminyl]-3,4-dihydroxybenzylamine] gave an IC50 of 533 nM. Take `O=C(CCc1ccc(O)c(O)c1)N[C@@H](Cc1cn(C(c2ccccc2)(c2ccccc2)c2ccccc2)cn1)C(=O)NCCc1ccc(O)c(O)c1` [Example 27, N-(Nα-Dihydrocaffeoyl-Nτ-trityl-L-histidinyl)dopamine]: the IC50 is above 5000 nM. With `Cc1ccc(C(c2ccccc2)(c2ccccc2)n2cnc(C[C@H](NC(=O)CCc3ccc(O)c(O)c3)C(=O)NCCc3ccc(O)c(O)c3)c2)cc1` [Example 28, N-(Nα-Dihydrocaffeoyl-Nτ-methyltrityl-L-histidinyl)dopamine], under setting [1], the IC50 was found to be 713 nM.

Take `O=C(N[C@@H](Cc1cn(C(c2ccccc2)(c2ccccc2)c2ccccc2)cn1)C(=O)O)c1ccc(O)c(O)c1` [Example 29, Nα-(3,4-Dihydroxybenzoyl)-Nτ-trityl-L-histidine]: the half-maximal inhibitory concentration (IC50) was 1600 nM.

On to `O=C(C=Cc1ccc(O)c(O)c1)NC(Cc1cn(C(c2ccccc2)(c2ccccc2)c2ccccc2)cn1)C(=O)NCc1ccc(O)c(O)c1` [Example 31, N-(Nα-Caffeoyl-Nτ-trityl-L-histidinyl)-3,4-dihydroxybenzylamine], for which the IC50 was found to be 364 nM. In turn, `Cc1ccc(C(NC(=O)CC[C@H](NC(=O)c2ccc(O)c(O)c2)C(=O)NCc2ccc(O)c(O)c2)(c2ccccc2)c2ccccc2)cc1` [Example 32, N-[Nα-(3,4-Dihydroxybenzoyl)-Nδ-methyltrityl-L-glutaminyl]-3,4-dihydroxybenzylamine] came in with a concentration for half-maximal inhibition (IC50) of 256 nM. In turn, `Cc1ccc(C(NC(=O)CC[C@H](NC(=O)/C=C/c2ccc(O)c(O)c2)C(=O)NCc2ccc(O)c(O)c2)(c2ccccc2)c2ccccc2)cc1` [Example 33, N-(Nα-Caffeoyl-Nδ-methyltrityl-L-glutaminyl)-3,4-dihydroxybenzylamine] showed an IC50 of 155 nM. In turn, `O=C(N[C@@H](COCc1ccccc1)C(=O)NCCc1ccc(O)c(O)c1)c1ccc(O)c([N+](=O)[O-])c1` [Example 34, N-[Nα-(4-Hydroxy-3-nitrobenzoyl)-O-benzyl-L-seryl]dopamine] showed an IC50 of 1800 nM. `O=C(/C=C/c1cccc([N+](=O)[O-])c1)N[C@@H](Cc1cn(C(c2ccccc2)(c2ccccc2)c2ccccc2)cn1)C(=O)NCCc1ccc(O)c(O)c1` [Example 35, N-(Nα-(3-Nitrocinnamoyl)-Nτ-trityl-L-histidinyl)dopamine]: it took 1200 nM to reach half-maximal inhibition (IC50). Take `Cc1ccc(C(c2ccccc2)(c2ccccc2)n2cnc(C[C@H](NC(=O)c3ccc(O)c([N+](=O)[O-])c3)C(=O)NCCc3ccc(O)c(O)c3)c2)cc1` [Example 36, N-[Nα-(4-Hydroxy-3-nitrobenzoyl)-Nτ-methyltrityl-L-histidinyl]dopamine]: the half-inhibitory concentration (IC50) under setting [1] amounted to 575 nM. Take `O=C(NCCCC[C@H](NC(=O)c1c(O)cc(O)cc1O)C(=O)NCCc1ccc(O)c(O)c1)OCc1ccccc1` [Example 37, N-[Nα-(2,4,6-Trihydroxybenzoyl)-Nε-benzyloxycarbonyl-L-lysyl]dopamine]: the concentration for half-maximal inhibition (IC50) came to 1600 nM. The same measure, in the same setting: the same measure for `O=C(N[C@@H](CSC(c1ccccc1)(c1ccccc1)c1ccccc1)C(=O)NCCc1ccc(O)c(O)c1)c1c(O)cccc1F` [Example 38, N-[Nα-(2-Fluoro-6-Hydroxybenzoyl)-S-trityl-L-cysteinyl]dopamine]: 1400 nM; for `O=C(N[C@@H](Cc1cn(C(c2ccccc2)(c2ccccc2)c2ccccc2)cn1)C(=O)NCCc1ccc(O)c(O)c1)c1cc(O)c(O)c(O)c1` [Example 39, N-[Nα-(3,4,5-Trihydroxybenzoyl)-Nτ-trityl-L-histidinyl]dopamine]: 222 nM. Take `O=C(C=Cc1ccc(O)c(O)c1)NC(Cc1cn(Cc2ccccc2)cn1)C(=O)NCCc1ccc(O)c(O)c1` [Example 40, N-(Nα-Caffeoyl-Nτ-benzyl-L-histidinyl)dopamine]: the IC50 amounted to 836 nM.
